Molecules are shown by their SMILES. Where two headings read alike, the source gives them in different places.

Common to all, as to assay type: in vivo
Data set [1] has as its system Yellow Fever Mosquito (Aedes aegypti, AEDSAE). To be noted: for YFM rating: Table ABC / ABC-DP rating; for YFM % Control (or Mortality) rating: about 1 day-old larvae, 4000 ppm master solution diluted with 90:10 water/acetone, 15 μL per well plus 220 μL larval mixture, 3 days. In short, it runs like this:
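Mortality after 3 days at room temperature is the read-out, scored well by well and converted to a rating. Test molecules came from 4000 ppm stocks in DMSO, further diluted in 90:10 water/acetone, and were exposed to roughly 1-day-old larvae suspended in liver-powder water.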

Data set [2] concerns Cabbage Looper (Trichoplusia ni, TRIPNI). The experiment in a line: Bioassays on Cabbage Looper (CL), 128-well diet tray assay. To be noted: Trichoplusia ni; for mortality at 50 µg/cm2: 168 h, second instar larvae, 50 μg/cm^2 of test molecule on artificial diet, 25° C., five to seven days, average of eight wells, read-out: CL % Control (or Mortality) rating. An outline of the steps:
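Each of eight wells receives artificial diet treated at 50 μg/cm^2 with the test molecule, then one to five second-instar larvae. Incubation runs five to seven days at 25° C with a 14:10 light-dark cycle under vented covers. Mortality is scored per well as a percentage and averaged.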

Data set [3] concerns Beet Armyworm (Spodoptera exigua, LAPHEG). The experiment in a line: Bioassays on Beet Armyworm (BAW), 128-well diet tray assay. As to conditions: Spodoptera exigua; for mortality at 50 µg/cm2: 168 h, second instar larvae, 50 μg/cm^2 of test molecule on artificial diet, 25° C., five to seven days, average of eight wells, read-out: BAW % Control (or Mortality) rating. An outline of the steps: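 Larvae at second instar are exposed on dried, compound-treated diet (50 μg/cm^2, delivered in 90:10 acetone-water) in eight replicate wells. After five to seven days at 25° C., 14:10 light-dark, percent mortality in each well is scored and the eight wells averaged.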

[4] abbreviates: Cabbage Looper, Table ABC / ABC-DP rating, read-out: CL rating.
Setting [5] is: Beet Armyworm, Table ABC / ABC-DP rating, read-out: BAW rating.
[6] abbreviates: Table ABC: Biological Results, species YFM.
Setting [7] is: Table ABC: Biological Results, species CL, read-out: CL.
Setting [8] is: Table ABC: Biological Results, species BAW, read-out: BAW.
[9] abbreviates: Yellow Fever Mosquito, rating class.
The mark [10] stands for this setting: Cabbage Looper, rating class, read-out: CL.
Where [11] appears, read: Beet Armyworm, rating class, read-out: BAW.

Consider `O=C(NN=Cc1cc(F)ccc1F)c1cc(NC(=O)[C@H]2[C@H](c3cc(Cl)cc(Cl)c3)C2(Cl)Cl)ccc1Cl` (relative stereo) [F3003, trans-2,2-Dichloro-N-(4-chloro-3-(2-(2,5-difluorobenzylidene)hydrazine-1-carbonyl)phenyl)-3-(3,5-dichlorophenyl)cyclopropane-1-carboxamide], for which, in data set [1] (Yellow Fever Mosquito), the YFM rating entry is listed as “A (80–100)”. The “YFM % Control (or Mortality) rating” value in data set [1] is “A (80–100)”. Moreover, the mortality at 50 µg/cm2 in data set [2] and in data set [3] was 50 to 100% in each case. In addition, the pest or weed control at 50 µg/cm2 in data set [2] (setting [4]) and in data set [3] (setting [5]) was 50 to 100% in each case.

With `NCCCC(=O)Nc1c(F)ccc(NC(=O)c2cc(NC(=O)[C@H]3[C@H](c4ccc(Cl)c(Cl)c4)C3(Cl)Cl)ccc2Cl)c1F` [F1201, N-(3-(4-Aminobutanamido)-2,4-difluorophenyl)-2-chloro-5-((1R,3R)-2,2-dichloro-3-(3,4-dichlorophenyl)cyclopropane-1-carboxamido)benzamide], in data set [1] (setting [6]), the YFM entry is reported as “A (80–100)”. Also, the pest or weed control at 50 µg/cm2 in data set [2] (setting [7]) and in data set [3] (setting [8]) was 50 to 100% in each case.

With `O=C(Nc1ccc(F)c(NS(=O)(=O)c2ccccc2)c1F)c1cc(NC(=O)[C@H]2[C@H](c3ccc(F)c(C(F)(F)F)c3)C2(Cl)Cl)ccc1Cl` [F1295, 2-chloro-5-((1R,3R)-2,2-dichloro-3-(4-fluoro-3-(trifluoromethyl)phenyl)cyclopropane-1-carboxamido)-N-(2,4-difluoro-3-(phenylsulfonamido)phenyl)benzamide], the YFM result in data set [1] (setting [6]) is given as “A (80–100)”. The pest or weed control at 50 µg/cm2 in data set [2] (setting [7]) and in data set [3] (setting [8]) was 50 to 100% in each case.

With `N#CC1(C(=O)Nc2c(F)ccc(NC(=O)c3cc(NC(=O)[C@H]4[C@H](c5ccc(F)c(C(F)(F)F)c5)C4(Cl)Cl)ccc3Cl)c2F)CC1` [F1263, 2-Chloro-N-(3-(1-cyanocyclopropane-1-carboxamido)-2,4-difluorophenyl)-5-((1R,3R)-2,2-dichloro-3-(4-fluoro-3-(trifluoromethyl)phenyl)cyclopropane-1-carboxamido)benzamide], the YFM entry in data set [1] (setting [6]) is listed as “A (80–100)”. For the same compound, the pest or weed control at 50 µg/cm2 in data set [2] (setting [7]) and in data set [3] (setting [8]) was 50 to 100% throughout.

Consider `Cc1c(F)cc(NC(=O)[C@H]2[C@H](c3ccc(F)c(Cl)c3)C2(Cl)Cl)cc1C(=O)NCC(F)(F)F` (relative stereo) [F2063, trans-5-(2,2-Dichloro-3-(3-chloro-4-fluorophenyl)cyclopropane-1-carboxamido)-3-fluoro-2-methyl-N-(2,2,2-trifluoroethyl)benzamide], for which the YFM rating result in data set [1] (Yellow Fever Mosquito) is recorded as “A (80–100)”. Also, the pest or weed control at 50 µg/cm2 in data set [2] (setting [4]) and in data set [3] (setting [5]) was 50 to 100% throughout.

On to `O=C(Nc1ccc(F)c(NC(=O)C(F)F)c1F)c1cc(NC(=O)[C@H]2[C@H](c3ccc(Br)cc3)C2(Cl)Cl)ccc1Cl` (relative stereo) [F1597, trans-5-(3-(4-Bromophenyl)-2,2-dichlorocyclopropane-1-carboxamido)-2-chloro-N-(3-(2,2-difluoroacetamido)-2,4-difluorophenyl)benzamide], for which the YFM result in data set [1] (setting [9]) is listed as “A (80–100)”. For the same compound, the pest or weed control at 50 µg/cm2 in data set [2] (setting [10]) and in data set [3] (setting [11]) was 50 to 100% each time.

With `N#CCC(=O)Nc1c(Cl)ccc(NC(=O)c2cc(NC(=O)[C@H]3[C@H](c4ccc(Cl)c(Cl)c4)C3(Cl)Cl)ccc2Cl)c1Cl` [F1415, 2-Chloro-N-(2,4-dichloro-3-(2-cyanoacetamido)phenyl)-5-((1R,3R)-2,2-dichloro-3-(3,4-dichlorophenyl)cyclopropane-1-carboxamido)benzamide], in data set [1] (setting [9]), the YFM result is recorded as “A (80–100)”. Besides, the pest or weed control at 50 µg/cm2 in data set [2] (setting [10]) and in data set [3] (setting [11]) was 50 to 100% throughout.

With `Nc1c(F)ccc(NC(=O)c2cc(NC(=O)[C@H]3[C@H](c4cc(Cl)cc(C(F)F)c4)C3(Cl)Cl)ccc2Cl)c1F` (relative stereo) [F1038, trans-N-(3-Amino-2,4-difluorophenyl)-2-chloro-5-(2,2-dichloro-3-(3-chloro-5-(difluoromethyl)phenyl)cyclopropane-1-carboxamido)benzamide], the YFM entry in data set [1] (setting [6]) was “A (80–100)”. The pest or weed control at 50 µg/cm2 in data set [2] (setting [7]) and in data set [3] (setting [8]) was 50 to 100% throughout.

As to `Nc1c(F)ccc(NC(=O)c2cc(NC(=O)[C@H]3[C@H](c4ccc(Br)cc4)C3(Cl)Cl)ccc2Cl)c1F` (relative stereo) [F1591, trans-N-(3-Amino-2,4-difluorophenyl)-5-(3-(4-bromophenyl)-2,2-dichlorocyclopropane-1-carboxamido)-2-chlorobenzamide], the YFM result in data set [1] (setting [9]) is reported as “A (80–100)”. The pest or weed control at 50 µg/cm2 in data set [2] (setting [10]) and in data set [3] (setting [11]) was 50 to 100% in each case.

With `O=C(Nc1ccc(F)c(NC(=O)C2CC2(F)F)c1F)c1cc(NC(=O)[C@H]2[C@H](c3ccc(F)c(C(F)(F)F)c3)C2(Cl)Cl)ccc1Cl` (stereo partly drawn) [F1275, 2-Chloro-5-((1R,3R)-2,2-dichloro-3-(4-fluoro-3-(trifluoromethyl)phenyl)cyclopropane-1-carboxamido)-N-(3-(2,2-difluorocyclopropane-1-carboxamido)-2,4-difluorophenyl)benzamide], the YFM entry in data set [1] (setting [6]) is recorded as “A (80–100)”. Also, the pest or weed control at 50 µg/cm2 in data set [2] (setting [7]) and in data set [3] (setting [8]) was 50 to 100% throughout.

Turning to `Cc1cc(NC(=O)[C@H]2[C@H](c3ccc(F)c(Cl)c3)C2(Cl)Cl)cc(C(=O)NCC(F)(F)F)c1F` (relative stereo) [F2030, trans-5-(2,2-Dichloro-3-(3-chloro-4-fluorophenyl)cyclopropane-1-carboxamido)-2-fluoro-3-methyl-N-(2,2,2-trifluoroethyl)benzamide], in data set [1] (Yellow Fever Mosquito), the YFM rating result is recorded as “A (80–100)”. Further, the pest or weed control at 50 µg/cm2 in data set [2] (setting [4]) and in data set [3] (setting [5]) was 50 to 100% in each case.

In the case of `O=C(Nc1ccc(F)c(NC(=O)C(F)(F)C(F)F)c1F)c1cc(NC(=O)[C@H]2[C@H](c3ccc(Cl)c(Cl)c3)C2(Cl)Cl)ccc1Cl` [F1414, 2-Chloro-5-((1R,3R)-2,2-dichloro-3-(3,4-dichlorophenyl)cyclopropane-1-carboxamido)-N-(2,4-difluoro-3-(2,2,3,3-tetrafluoropropanamido)phenyl)benzamide], the YFM result in data set [1] (setting [9]) is “A (80–100)”. Further, the pest or weed control at 50 µg/cm2 in data set [2] (setting [10]) and in data set [3] (setting [11]) was 50 to 100% throughout.

With `Nc1c(F)ccc(NC(=O)c2cc(NC(=O)[C@H]3[C@H](c4cccc(Br)c4)C3(Cl)Cl)ccc2Cl)c1F` (relative stereo) [F1594, trans-N-(3-Amino-2,4-difluorophenyl)-5-(3-(3-bromophenyl)-2,2-dichlorocyclopropane-1-carboxamido)-2-chlorobenzamide], the YFM result in data set [1] (setting [9]) is “A (80–100)”. Besides, the pest or weed control at 50 µg/cm2 in data set [2] (setting [10]) and in data set [3] (setting [11]) was 50 to 100% throughout.

As to `O=C(Nc1cc(F)c(F)c(Br)c1)c1cc(NC(=O)[C@H]2[C@H](c3cc(Cl)cc(Cl)c3)C2(Cl)Cl)ccc1Cl` (relative stereo) [DP11, trans-N-(3-Bromo-4,5-difluorophenyl)-2-chloro-5-(2,2-dichloro-3-(3,5-dichlorophenyl)cyclopropane-1-carboxamido)benzamide], the YFM rating entry in data set [1] (Yellow Fever Mosquito) was “A (80–100)”. Further, the “YFM % Control (or Mortality) rating” value in data set [1] was “A (80–100)”. In addition, the mortality at 50 µg/cm2 in data set [2] and in data set [3] was 50 to 100% in each case. For the same compound, the pest or weed control at 50 µg/cm2 in data set [2] (setting [4]) and in data set [3] (setting [5]) was 50 to 100% each time.

Values taken from US20250228239A1, “MOLECULES HAVING PESTICIDAL UTILITY, AND INTERMEDIATES, COMPOSITIONS, AND PROCESSES, RELATED THERETO” (priority 2024, published 2025).
